# Reference: ChEMBL document CHEMBL1149537, “Design and synthesis of 1,2-dithiolane derivatives and evaluation of their neuroprotective activity” (Bioorg Med Chem Lett, 2007)
# System: HT-22
# Assay: Neuroprotective activity against glutamate-induced damage in mouse HT22 cells after 24 hrs
# Type: functional, cell-based
# Details: HT-22, 24 h
row,Compound,EC50
1,O=C(CCCCC(S)CCS)NCCc1ccc(O)c(O)c1 (stereo not given),> 10 µM
2,COc1ccc(CCn2nnnc2CCCCC2CCSS2)cc1OC (stereo not given),> 10 µM
3,COc1ccc(-c2noc(CCCCC(S)CCS)n2)cc1OC (stereo not given),> 10 µM
4,COc1ccc(-c2nnc(CCCCC3CCSS3)o2)cc1OC (stereo not given),> 10 µM
5,COc1ccc(CCn2nnnc2CCCCC(S)CCS)cc1OC (stereo not given),> 10 µM
6,COc1ccc(-c2csc(CCCCC3CCSS3)n2)cc1OC (stereo not given),> 10 µM
7,COc1ccc(CCc2nnc(CCCCC3CCSS3)o2)cc1OC (stereo not given),> 10 µM
8,Oc1ccc(CCc2nnc(CCCCC3CCSS3)o2)cc1O (stereo not given),4.21 µM
9,COc1ccc(-c2noc(CCCCC3CCSS3)n2)cc1OC (stereo not given),> 10 µM
10,O=C(CCCCC1CCSS1)NCCc1ccc(O)c(O)c1 (stereo not given),> 10 µM
11,Oc1ccc(CCn2nnnc2CCCCC2CCSS2)cc1O (stereo not given),2.99 µM
12,COc1ccc(-c2cn(CCCCCC3CCSS3)nn2)cc1OC (stereo not given),> 10 µM
13,COc1ccc(CCNC(=O)CCCCC2CCSS2)cc1OC (stereo not given),> 10 µM
14,Oc1ccc(-c2noc(CCCCC3CCSS3)n2)cc1O (stereo not given),3.63 µM
15,Oc1ccc(-c2cn(CCCCCC3CCSS3)nn2)cc1O (stereo not given),6.23 µM
